# How the values were obtained:
# Type in all cases: in vivo
# [1] = test system: root knot nematodes (Meloidogyne incognita/acrita); assay: Field trial: yield improvement against root knot nematode in corn after seed treatment; conditions: corn (NG6247MQKZ, NF5334MQKZ, NG4549MQKZ) seed treatment; per 100 kg of seeds: MBI600 1*10^11 CFU, cis-jasmone 0.2 g ai; harvest yield (bushels/acre) converted into % of untreated control; 4-6 replicates
# Source text: (§1) To establish, whether a synergistic effect is present, the expected efficacy has to be calculated and compared to the observed efficacy of the mixture according to the invention.
# (§2) Synergism can be described as an interaction where the combined effect of two or more compounds is greater than the sum of the individual effects of each of the compounds. The presence of a synergistic effect in terms of percent control, between two mixing partners (X and Y) can be calculated using the Colby equation (Colby, S. R., 1967, Calculating Synergistic and Antagonistic Responses in Herbicide Combinations, Weeds, 15, 20-22):
# (§3) X=Observed efficacy (in % of Untreated Control) of compound 1
# (§4) Y=Observed efficacy (in % of Untreated Control) of compound 2
# (§5) E=Calculated (i.e. expected) efficacy (in % of Untreated Control)
# (§6) When the observed efficacy (%) is greater than the calculated efficacy (E) according to Colby (%), then the combined effect is synergistic.
# For evaluating control of root knot nematodes (Meloidogyne incognita/acrita) in corn, corn seeds (varieties NG6247MQKZ, NF5334MQKZ and NG4549MQKZ, respectively) were treated with cis-jasmone, MBI600 (Bacillus amyloliquefaciens ssp. plantarum MBI600), or a mixture thereof. […]
# [2] = test system: soybean cyst nematodes (Heterodera glycines); assay: Field trial: yield improvement against soybean cyst nematode in soybean after seed treatment; conditions: soybean (Dyna-Gro 39RY43) seed treatment; per 100 kg of seed: MBI600 1*10^11 CFU, cis-jasmone 0.2 g ai; harvest yield (bushels/acre) converted into % of untreated control; 4 replicates
# Source text: as §1, §2, §3, §4, §5, §6
# For evaluating control of soybean cyst nematodes (Heterodera glycines) in soybean, soybean seeds (variety Dyna-Gro 39RY43) were treated with cis-jasmone, MB1600 (Bacillus amyloliquefaciens ssp. plantarum MB1600), or a mixture thereof.
# (§7) Seeds were placed in a plastic cup and the compounds, or the mixture thereof, was dosed on the seeds with an application rate of 0.2 g of cis-jasmone per 100 kg of seeds, and 1*10^11 CFU of MBI600 per 100 kg of seeds. […]
# [3] = test system: root knot nematodes (Meloidogyne incognita/acrita); assay: Field trial: yield improvement against root knot nematode in cotton after seed treatment; conditions: cotton (PhytoGen PHY 499 WRF) seed treatment; per 100 kg of seed: MBI600 1*10^11 CFU, cis-jasmone 0.2 g ai; harvest yield (pounds/acre) converted into % of untreated control; 4 replicates
# Source text: as §1, §2, §3, §4, §5, §6
# For evaluating control of root knot nematodes (Meloidogyne incognita/acrita) in cotton, cotton seeds (variety PhytoGen PHY 499 WRF) were treated with cis-jasmone, MBI600 (Bacillus amyloliquefaciens ssp. plantarum MBI600), or a mixture thereof.
# as §7
compound,measurement,setting,value
CC/C=C\CC1=C(C)CCC1=O [Cis-jasmone],Observed efficacy (%),[1],9.2%
same,Observed efficacy (%),[2],9%
same,Observed efficacy (%),[3],47.2%
